Where two headings read alike, the source gives them in different places.
How the values were obtained:
[1] = test system: DEL, ALCL; conditions: Table 5; cAC10 ADCs 8 drugs/mAb, MDPR-Linker-TubM
Method: (§1) In vitro assays. Cells cultured in log-phase growth were seeded for 24 h in 96-well plates containing 150 μL RPMI 1640 supplemented with 20% FBS. Serial dilutions of antibody-drug conjugates in cell culture media were prepared at 4× working concentrations; 50 μL of each dilution was added to the 96-well plates. […] After 96 h, growth inhibition was assessed by CellTiter-Glo® (Promega, Madison, WI) and luminescence was measured on a plate reader.
(§2) In vitro assays—tubulysin ADCs. ADCs were prepared by t Ell reduction of interchain disulfides to reveal 8-conjugatable cysteines/antibody that were alkylated through Michael addition with the maleimide-containing Drug Linker compounds. […] conjugates hearing quaternized tubulysin ethers with and without a PEG12 side-chain were compared to their tubulysin M analogs.
(§3) Several hydrophilic linker constructs incorporating quaternized tubulysin M were prepared and evaluated in vitro; the results are shown in Table 5. The data (IC50 values in ng/mL) indicate that Conjugates prepared from Drug Linker compounds having quaternized tubulysin M linked via a hydrophilic ValGlu dipeptide with (95) or without (91) a PEG12 side chain, or linked via a hydrophilic glucuronide (82) provide ADCs that are equipotent to the ValAla comparator (15).

[2] = test system: L540cy, HL
Method: as §1, §2, §3

[3] = test system: L428, MDR + HL
Method: as §1, §2, §3

[4] = test system: DEL/BVR, MDR + ALCL
Method: as §1, §2, §3

[5] = test system: antigen-negative Hep3B hepatocellular carcinoma cells; conditions: Table 5, cAC10 ADCs 8 drugs/mAb, MDPR-Linker-TubM
Method: as §1, §3

[6] = test system: Karpas299, L540cy, L428, DEL, DEL/BVR cell lines; assay: In vitro assays - tubulysin ADCs, statements across the cell line panel; type: cell-based; conditions: for potency relative to the ValAla comparator (15), in words: Table 5, cAC10 ADCs 8 drugs/mAb, quaternized tubulysin M
Method: as §1, §2, §3

[7] = test system: Karpas299, ALCL; assay: In vitro assays - tubulysin ADCs (cAC10, anti-CD30); type: cell-based; conditions: Table 4; cAC10 ADCs DAR 8, 96 h
Method: In vitro assays. Cells cultured in log-phase growth were seeded for 24 h in 96-well plates containing 150 μL RPMI 1640 supplemented with 20% FBS. Serial dilutions of antibody-drug conjugates in cell culture media were prepared at 4× working concentrations; 50 μL of each dilution was added to the 96-well plates. Following addition of ADC, cells were incubated with test articles for 4 d at 37° C. After 96 h, growth inhibition was assessed by CellTiter-Glo® (Promega, Madison, WI) and luminescence was measured on a plate reader.

[8] = Table 5, cAC10 ADCs 8 drugs/mAb, MDPR-Linker-TubM
[9] = Table 4, cAC10 ADCs DAR 8, 96 h

`CC[C@H](C)[C@H](NC(=O)[C@H]1CCCC[N+]1(C)Cc1ccc(NC(=O)[C@H](C)NC(=O)[C@@H](NC(=O)[C@H](CN)N2C(=O)C=CC2=O)C(C)C)cc1)C(=O)N(C)[C@H](C[C@@H](OC(C)=O)c1nc(C(=O)N[C@@H](Cc2ccccc2)C[C@H](C)C(=O)O)cs1)C(C)C` (stereo partly drawn) [Compound 15, (2R)-2-(((2S,3S)-1-(((1R,3R)-1-acetoxy-1-(4-(((2R,4S)-4-carboxy-1-phenylpentan-2-yl)carbamoyl)thiazol-2-yl)-4-methylpentan-3-yl)(methyl)amino)-3-methyl-1-oxopentan-2-yl)carbamoyl)-1-(4-((S)-2-((S)-2-((S)-3-amino-2-(2,5-dioxo-2,5-dihydro-1H-pyrrol-1-yl)propanamido)-3-methylbutanamido)propanamido)benzyl)-1-methylpiperidin-1-ium] was tested, and the “IC50, DEL, ALCL” value [1] was 0.3 ng/mL, the “IC50, L540cy, HL” value [2, 8] was 2 ng/mL and the “IC50, L428, MDR + HL” value [3, 8] was 1 ng/mL. For the same compound, the “IC50, DEL/BVR, MDR + ALCL” value [4, 8] was 4 ng/mL and the “IC50, Hep3B CD30- HCC” value [5] was greater than 1000 ng/mL.

In the case of `CCO[C@H](C[C@H](C(C)C)N(C)C(=O)[C@@H](NC(=O)[C@H]1CCCC[N+]1(C)Cc1ccc(O[C@@H]2O[C@H](C(=O)O)[C@@H](O)[C@H](O)[C@H]2O)c(NC(=O)CCNC(=O)[C@H](CN)N2C(=O)C=CC2=O)c1)[C@@H](C)CC)c1nc(C(=O)N[C@@H](Cc2ccccc2)C[C@H](C)C(=O)O)cs1` (stereo partly drawn) [Compound 57, (2R)-1-(3-(3-((S)-3-amino-2-(2,5-dioxo-2,5-dihydro-1H-pyrrol-1-yl)propanamido)propanamido)-4-(((2S,3R,4S,5S,6S)-6-carboxy-3,4,5-trihydroxytetrahydro-2H-pyran-2-yl)oxy)benzyl)-2-(((2S,3S)-1-(((1R,3R)-1-(4-(((2R,4S)-4-carboxy-1-phenylpentan-2-yl)carbamoyl)thiazol-2-yl)-1-ethoxy-4-methylpentan-3-yl)(methyl)amino)-3-methyl-1-oxopentan-2-yl)carbamoyl)-1-methylpiperidin-1-ium], the “conjugate potency, in words” value ([6]; Table 4, cAC10 conjugates 8 drug/Ab) is reported as “consistently more potent”, the “IC50, L540cy, HL” value [2, 9] is reported as 5 ng/mL and the “IC50, L428, MDR + HL” value [3, 9] is reported as 4 ng/mL. For the same compound, the “IC50, DEL/BVR, MDR + ALCL” value [4, 9] was 5 ng/mL and the “IC50, Karpas299, ALCL” value [7] was 1 ng/mL.

In the case of `CC[C@H](C)[C@H](NC(=O)[C@H]1CCCC[N+]1(C)Cc1ccc(O[C@@H]2O[C@H](C(=O)O)[C@@H](O)[C@H](O)[C@H]2O)c(NC(=O)CCNC(=O)[C@H](CN)N2C(=O)C=CC2=O)c1)C(=O)N(C)[C@H](C[C@@H](OC(C)=O)c1nc(C(=O)N[C@@H](Cc2ccccc2)C[C@H](C)C(=O)O)cs1)C(C)C` (stereo partly drawn) [Compound 82, (2R)-2-(((2S,3S)-1-(((1R,3R)-1-acetoxy-1-(4-(((2R,4S)-4-carboxy-1-phenylpentan-2-yl)carbamoyl)thiazol-2-yl)-4-methylpentan-3-yl)(methyl)amino)-3-methyl-1-oxopentan-2-yl)carbamoyl)-1-(3-(3-((S)-3-amino-2-(2,5-dioxo-2,5-dihydro-1H-pyrrol-1-yl)propanamido)propanamido)-4-(((2S,3R,4S,5S,6S)-6-carboxy-3,4,5-trihydroxytetrahydro-2H-pyran-2-yl)oxy)benzyl)-1-methylpiperidin-1-ium], the “IC50, DEL, ALCL” value [1] is reported as 0.3 ng/mL, the “IC50, L540cy, HL” value [2, 9] is reported as 4 ng/mL and the “IC50, L540cy, HL” value [2, 8] is reported as 1 ng/mL. For the same compound, the “IC50, L428, MDR + HL” value [3, 9] was 0.5 ng/mL, the “IC50, L428, MDR + HL” value [3, 8] was 0.4 ng/mL and the “IC50, DEL/BVR, MDR + ALCL” value [4, 9] was 3 ng/mL. The “IC50, DEL/BVR, MDR + ALCL” value [4, 8] was 4 ng/mL, the “IC50, Hep3B CD30- HCC” value [5] was greater than 1000 ng/mL and the “IC50, Karpas299, ALCL” value [7] was 0.6 ng/mL.

`CC[C@H](C)[C@H](NC(=O)[C@H]1CCCC[N+]1(C)Cc1ccc(NC(=O)[C@H](CCC(=O)O)NC(=O)[C@@H](NC(=O)[C@H](CN)N2C(=O)C=CC2=O)C(C)C)cc1)C(=O)N(C)[C@H](C[C@@H](OC(C)=O)c1nc(C(=O)N[C@@H](Cc2ccccc2)C[C@H](C)C(=O)O)cs1)C(C)C` (stereo partly drawn) [Compound 91, (2R)-2-(((2S,3S)-1-(((1R,3R)-1-acetoxy-1-(4-(((2R,4S)-4-carboxy-1-phenylpentan-2-yl)carbamoyl)thiazol-2-yl)-4-methylpentan-3-yl)(methyl)amino)-3-methyl-1-oxopentan-2-yl)carbamoyl)-1-(4-((S)-2-((S)-2-((S)-3-amino-24 (2,5-dioxo-2,5-dihydro-1H-pyrrol-1-yl)propanamido)-3-methylbutanamido)-4-carboxybutanamido)benzyl)-1-methylpiperidin-1-ium] was tested, and the “potency relative to the ValAla comparator (15), in words” value [6] was “equipotent”, the “IC50, DEL, ALCL” value [1] was 0.1 ng/mL and the “IC50, L540cy, HL” value [2, 8] was 1 ng/mL. The “IC50, L428, MDR + HL” value [3, 8] was 0.3 ng/mL, the “IC50, DEL/BVR, MDR + ALCL” value [4, 8] was 2 ng/mL and the “IC50, Hep3B CD30- HCC” value [5] was greater than 1000 ng/mL.

In the case of `CC[C@H](C)[C@H](NC(=O)[C@H]1CCCC[N+]1(C)Cc1ccc(NC(=O)[C@H](CCC(=O)O)NC(=O)[C@@H](NC(=O)[C@H](CCCCNC(=O)CCOCCOCCOCCOCCOCCOCCOCCOCCOCCOCCOCCOC)NC(=O)[C@H](CN)N2C(=O)C=CC2=O)C(C)C)cc1)C(=O)N(C)[C@H](C[C@@H](OC(C)=O)c1nc(C(=O)N[C@@H](Cc2ccccc2)C[C@H](C)C(=O)O)cs1)C(C)C` (stereo partly shown) [Compound 95], the “potency relative to the ValAla comparator (15), in words” value [6] is reported as “equipotent”, the “IC50, DEL, ALCL” value [1] is reported as 0.1 ng/mL and the “IC50, L540cy, HL” value [2, 8] is reported as 0.8 ng/mL. For the same compound, the “IC50, L428, MDR + HL” value [3, 8] was 0.2 ng/mL, the “IC50, DEL/BVR, MDR + ALCL” value [4, 8] was 2 ng/mL and the “IC50, Hep3B CD30- HCC” value [5] was greater than 1000 ng/mL.
